From US7476691B2, “Sulfamate benzothiophene derivatives as steroid sulfatase inhibitors” (Laboratoire Theramex, priority 2003, dated 2009)

Assays:
prepubescent female rats = experiment: Residual estrogenic activity in vivo (uterotrophic assay)
Experimental: These compounds were checked for residual estrogenic activity in vivo in the classical uterotrophic assay after 3-day administration by oral route in prepubescent female rats.
Prepubescent female rats were orally treated at 1 mg/rat/day for 3 days. On the day following the last treatment, uteri were removed and wet weight were recorded.
The results are expressed as % of stimulation of uterus weight in comparison with controls.

estrone sulfatase = target: T1, estrone sulfatase (Homo sapiens, UniProt P08842); experiment: Estrone sulfatase whole-cell assay on JEG-3 cells; assay type: cell-based; set-up: The JEG-3 cell line, derived from a human placental choriocarcinoma, is spontaneously very rich in human estrone sulfatase; endogenous in cells; host or cells: JEG-3 (human placental choriocarcinoma), intact cells; conditions: 4 h treatment, 3H-E1S, read-out: IC50 (nM) ± S.E.M., inhibition of estrone sulfatase
T1 sequence (P08842 22-583): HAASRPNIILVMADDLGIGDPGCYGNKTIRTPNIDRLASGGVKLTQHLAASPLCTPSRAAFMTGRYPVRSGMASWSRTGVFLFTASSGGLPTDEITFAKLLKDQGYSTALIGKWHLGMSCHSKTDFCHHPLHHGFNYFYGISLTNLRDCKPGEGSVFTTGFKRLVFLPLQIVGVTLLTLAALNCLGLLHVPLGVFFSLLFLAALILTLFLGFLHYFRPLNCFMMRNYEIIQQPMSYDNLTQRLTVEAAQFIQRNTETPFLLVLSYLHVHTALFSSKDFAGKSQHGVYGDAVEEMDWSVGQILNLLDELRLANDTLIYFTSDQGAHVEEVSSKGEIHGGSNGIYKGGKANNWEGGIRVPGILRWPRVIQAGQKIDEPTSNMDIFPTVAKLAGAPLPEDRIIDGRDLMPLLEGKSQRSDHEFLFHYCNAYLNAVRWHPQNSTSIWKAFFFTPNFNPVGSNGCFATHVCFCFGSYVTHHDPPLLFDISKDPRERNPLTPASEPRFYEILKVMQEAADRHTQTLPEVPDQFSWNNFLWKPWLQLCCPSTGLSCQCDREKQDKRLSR
Experimental: Two in vitro models on whole cells were used. […] Moreover, these cells were used in the in vivo model of hormono-dependent induced xenografts.
Estrone Sulfatase Assay on Cells
Whole-cell assays were performed as originally described by Duncan et al. (Cancer Res., 1993, 53: 298-303) on intact MCF-7 cell monolayers. Assays were carried out with cells in logarithmic growth phase, on 96-well (JEG-3) or 24-well (MCF-7) microplates. Twenty-four hours (JEG-3) or 72 h (MCF-7) before studies, cells were seeded in decomplemented fetal calf serum (dFCS) supplemented medium. Then, the seeding medium was removed and the cells were rinsed with PBS to eliminate any trace of dFCS. Then, ^3H-E1S was added, followed by test compounds ranging from 10^−12 M to 10^−5 M. After 4 h (JEG-3) or 20 h (MCF-7) of treatment, the medium was transferred into either 96-deep-well microplates (JEG-3) or plastic tubes (MCF-7) and centrifuged at 200×g for 10 min to pellet cells before toluene extraction. A fraction of medium was used for toluene extraction in order to separate conjugated substrate and non-conjugated products. The radioactivity in the toluene phase was measured by liquid scintillation counting (LSC). Finally, estrone sulfatase activity was expressed in pmoles of ^3H-E1+^3H-E2 formed per 4 or 20 hours and per μg DNA and estrone sulfatase inhibition in percentage of control activity without inhibitor.

[1] = tested on: ovariectomized Wistar female rats; experiment: Antiuterotrophic/antisulfatase activity: inhibition of E1S stimulated uterus weight; assay type: in vivo, rat
Experimental: A short model, derived from Purohit's method, was developed for the evaluation in vivo of nonestrogenic steroid sulfatase inhibitors.
Wistar female rats were ovariectomized and left to rest for 4 weeks. Prior to treatment, the absence of cyclicity was checked by vaginal smears.
Animals were supplemented with estrone sulfate (E1S) at 50 μg/kg/day s.c., alone or combined with oral administration of potential sulfatase inhibitors, at 1 mg/kg/day for 4 days. The uteri were removed, freed of adjacent tissue and wet weighed.
The results are expressed as % of inhibition of the E1S induced stimulation.
The activity of Ex 55 on E1S stimulated uterus weight was evaluated in relation to the standard inhibitor 6,6,7 COUMATE from 0.03 mg/kg/day to 1 mg/kg/day p.o.
In this study, a last administration was performed 24 hours before the necropsy for E1S and E2 serum levels assays. The uteri were removed, freed of adjacent tissue, wet weighed and immediately deep frozen until the determination of sulfatase activity.

## NS(=O)(=O)Oc1ccc2c(c1)S(=O)(=O)C(CC1CCCCCC1)=C2 [Ex 55, Sulfamic acid, 2-cycloheptylmethyl-benzothiophene-6-yl-1,1-dioxide ester]
Prepubescent female rats; prepubescent female rats, oral, 1 mg/rat/day for 3 days
  % stimulation of uterus weight in comparison with controls: 3%
Prepubescent female rats; summary of the uterotrophic assay
  estrogenicity (in words): lack of estrogenicity
Estrone sulfatase
  IC50: 7.7 ± 0.4 nM
[1]; 0.03 mg/kg/day p.o.
  Inhibition of E1S stimulated uterus weight: 0%
[1]; 0.1 mg/kg/day p.o.
  Inhibition of E1S stimulated uterus weight: 0%
[1]; 0.3 mg/kg/day p.o.
  Inhibition of E1S stimulated uterus weight: 36%
[1]; 1 mg/kg/day p.o.
  Inhibition of E1S stimulated uterus weight: 72%
[1]; ovariectomized rats, E1S 50 μg/kg/day s.c., compound oral 1 mg/kg/day for 4 days
  % inhibition of the E1S induced stimulation (uterus weight): 81%
[1]; summary of the antiuterotrophic assay
  inhibition of E1S stimulated uterus weight (in words): significant inhibition
